Assay results as given in ChEMBL document CHEMBL1201862, “PubChem BioAssay data set” (2004).
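Values below derive from 48-hour exposures of cells grown in 96-well plates, with endpoints linearly interpolated between the two concentrations bracketing the appropriate inhibition level. GI50 is the concentration that inhibits growth by half.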 Activity calls are given as the source filed them. Rule as the data show it: active = GI50 up to about 1.1 µM and inactive = higher.

Experiments:
Assay in all cases: NCI anticancer screen, dose series, 48 h
[1] = system: NCI-H522
[2] = system: LOX IMVI
[3] = system: OVCAR-4
[4] = system: ACHN
[5] = system: NCI/ADR-RES
[6] = system: SNB-75
[7] = system: OVCAR-5
[8] = system: TK-10
[9] = system: OVCAR-8
[10] = system: UACC-62
[11] = system: K562
[12] = system: U-251
[13] = system: UO-31
[14] = system: OVCAR-3
[15] = system: M14
[16] = system: SK-MEL-5
[17] = system: A498
[18] = system: HOP-92
[19] = system: HCC 2998

SMILES	GI50 [1]	GI50 [2]	GI50 [3]	GI50 [4]	GI50 [5]	GI50 [6]	GI50 [7]	GI50 [8]	GI50 [9]	GI50 [10]	GI50 [11]	GI50 [12]	GI50 [13]	GI50 [14]	GI50 [15]	GI50 [16]	GI50 [17]	GI50 [18]	GI50 [19]
Cc1nnc(Nc2ccccc2)o1	> 100 µM (inactive)	> 100 µM (inactive)	> 100 µM (inactive)	> 100 µM (inactive)	> 100 µM (inactive)	> 100 µM (inactive)	> 100 µM (inactive)	> 100 µM (inactive)	> 100 µM (inactive)	> 100 µM (inactive)	> 100 µM (inactive)	> 100 µM (inactive)	> 100 µM (inactive)	> 100 µM (inactive)	> 100 µM (inactive)	> 100 µM (inactive)			
N=C1C(O)C2(I)c3ccccc3N3C(=N)C(O)C4c5ccccc5N1C4C32 (stereo not given)	25.9 µM (inactive)	39 µM (inactive)	16 µM (inactive)	39.4 µM (inactive)	61.2 µM (inactive)	> 100 µM (inactive)	> 100 µM (inactive)	> 100 µM (inactive)	33.5 µM (inactive)	> 100 µM (inactive)	26.4 µM (inactive)	22.1 µM (inactive)	> 100 µM (inactive)	32.1 µM (inactive)	59 µM (inactive)	30.8 µM (inactive)	> 100 µM (inactive)	37.4 µM (inactive)	
Cc1cc2c(c(=O)o1)C1=S(SC(c3ccccc3)=C1)S2 (stereo not given)	37.6 µM (inactive)	87.1 µM (inactive)	29 µM (inactive)	34.7 µM (inactive)	83.4 µM (inactive)	26 µM (inactive)	78.9 µM (inactive)	32.2 µM (inactive)	54.7 µM (inactive)	39.2 µM (inactive)	38.4 µM (inactive)	22.5 µM (inactive)	26.5 µM (inactive)	24.9 µM (inactive)	45.5 µM (inactive)	47.4 µM (inactive)	13.9 µM (inactive)	20.8 µM (inactive)	
NC1=CN2c3ccccc3N(CC(=O)N3CCOCC3)C2C=C1 (stereo not given)	> 100 µM (inactive)	> 100 µM (inactive)	> 100 µM (inactive)	> 100 µM (inactive)	> 100 µM (inactive)	> 100 µM (inactive)	> 100 µM (inactive)	> 100 µM (inactive)	> 100 µM (inactive)	> 100 µM (inactive)	> 100 µM (inactive)	> 100 µM (inactive)	> 100 µM (inactive)		> 100 µM (inactive)	> 100 µM (inactive)	52.1 µM (inactive)	> 100 µM (inactive)	
COCOc1cc(OC)ccc1C=O	27.6 µM (inactive)	53 µM (inactive)	78 µM (inactive)	95.7 µM (inactive)	17.3 µM (inactive)	27.5 µM (inactive)	> 100 µM (inactive)	31.6 µM (inactive)	41.3 µM (inactive)	54.2 µM (inactive)	23.9 µM (inactive)	30 µM (inactive)	64 µM (inactive)	20.9 µM (inactive)	35.2 µM (inactive)	27.4 µM (inactive)			24.2 µM (inactive)
COC(=O)Cc1c([C@H]2[C@H](CC(=O)OC)c3ccccc3N2C(C)=O)[nH]c2ccccc12	71 µM (inactive)	> 100 µM (inactive)		> 100 µM (inactive)	> 100 µM (inactive)	> 100 µM (inactive)	> 100 µM (inactive)	> 100 µM (inactive)	> 100 µM (inactive)	> 100 µM (inactive)	50.8 µM (inactive)	91.2 µM (inactive)	39.9 µM (inactive)	> 100 µM (inactive)	> 100 µM (inactive)	> 100 µM (inactive)	> 100 µM (inactive)	> 100 µM (inactive)	
O=C(Cn1c2c(c3ccccc31)CCCC2)NC1CCCCC1		68.5 µM (inactive)	94.2 µM (inactive)	> 100 µM (inactive)	> 100 µM (inactive)		46.8 µM (inactive)	> 100 µM (inactive)	> 100 µM (inactive)	56.4 µM (inactive)	> 100 µM (inactive)		> 100 µM (inactive)	96.4 µM (inactive)	> 100 µM (inactive)	> 100 µM (inactive)	> 100 µM (inactive)		> 100 µM (inactive)
CC(=O)NC1(C)C(C)C2CC1C(C)C2(C)C (stereo not given)	> 100 µM (inactive)		> 100 µM (inactive)	> 100 µM (inactive)		> 100 µM (inactive)	> 100 µM (inactive)	> 100 µM (inactive)	> 100 µM (inactive)	> 100 µM (inactive)	> 100 µM (inactive)	> 100 µM (inactive)	> 100 µM (inactive)	> 100 µM (inactive)	> 100 µM (inactive)	> 100 µM (inactive)	> 100 µM (inactive)	> 100 µM (inactive)	> 100 µM (inactive)
CC(C)(C)C(=O)CC(=O)C(F)(F)C(F)(F)C(F)(F)F		0.362 µM (active)	13.2 µM (inactive)	15.3 µM (inactive)	18.6 µM (inactive)	16.6 µM (inactive)	35.4 µM (inactive)	18.2 µM (inactive)	20.7 µM (inactive)	15.3 µM (inactive)	15.8 µM (inactive)	18.4 µM (inactive)	20 µM (inactive)	14.1 µM (inactive)	16 µM (inactive)	7.19 µM (inactive)		14.7 µM (inactive)	
CCCCOc1ccc(S(=O)(=O)N/C(N)=N/c2ccc(Cl)cc2)cc1	10.5 µM (inactive)	17.3 µM (inactive)	10.2 µM (inactive)	14.6 µM (inactive)	16 µM (inactive)	17.9 µM (inactive)	17.7 µM (inactive)	14.9 µM (inactive)	16.1 µM (inactive)	14.1 µM (inactive)	15 µM (inactive)	14.8 µM (inactive)	14.8 µM (inactive)	14.9 µM (inactive)	18.7 µM (inactive)	18.9 µM (inactive)	12.1 µM (inactive)	10.8 µM (inactive)	
CC1(C)OP(=O)(c2ccccc2)C=C1Sc1ccc([N+](=O)[O-])cc1[N+](=O)[O-] (stereo not given)	19 µM (inactive)	36.6 µM (inactive)	29.7 µM (inactive)	> 100 µM (inactive)	80.5 µM (inactive)	> 100 µM (inactive)	> 100 µM (inactive)	> 100 µM (inactive)	62.1 µM (inactive)	35 µM (inactive)	27 µM (inactive)	54.7 µM (inactive)		30.4 µM (inactive)	63.8 µM (inactive)	42.7 µM (inactive)	> 100 µM (inactive)	91.4 µM (inactive)	
Cc1ccc2[nH]c3[nH]c(=O)[nH]c(=O)c3c2c1	> 100 µM (inactive)	> 100 µM (inactive)		> 100 µM (inactive)	> 100 µM (inactive)	> 100 µM (inactive)	> 100 µM (inactive)	> 100 µM (inactive)	> 100 µM (inactive)	> 100 µM (inactive)	> 100 µM (inactive)		> 100 µM (inactive)	> 100 µM (inactive)	> 100 µM (inactive)	> 100 µM (inactive)	> 100 µM (inactive)	> 100 µM (inactive)	
N=C(CSS(=O)(=O)O)NC1CC2CCC1C2 (stereo not given)	> 100 µM (inactive)	46 µM (inactive)	> 100 µM (inactive)	> 100 µM (inactive)	> 100 µM (inactive)	> 100 µM (inactive)		> 100 µM (inactive)	> 100 µM (inactive)	> 100 µM (inactive)	98.6 µM (inactive)	57.8 µM (inactive)		> 100 µM (inactive)	> 100 µM (inactive)	> 100 µM (inactive)	> 100 µM (inactive)	> 100 µM (inactive)	
CC(C)N(C(=O)C12C3C4C1C1C2C3C41C(=O)O)C(C)C (stereo not given)	> 100 µM (inactive)	> 100 µM (inactive)	> 100 µM (inactive)	> 100 µM (inactive)		> 100 µM (inactive)	> 100 µM (inactive)	> 100 µM (inactive)	> 100 µM (inactive)	> 100 µM (inactive)	> 100 µM (inactive)		> 100 µM (inactive)	> 100 µM (inactive)	> 100 µM (inactive)	> 100 µM (inactive)	> 100 µM (inactive)		> 100 µM (inactive)
NC1=NN(c2ccccc2)C(=O)C1/C(=N\NC(=O)c1cc2ccccc2cc1O)C(=O)Nc1ccc(Cl)c(Cl)c1 (stereo not given)	16.5 µM (inactive)	24.5 µM (inactive)	16.3 µM (inactive)	28.3 µM (inactive)		31.2 µM (inactive)	44.6 µM (inactive)	55.6 µM (inactive)	17.3 µM (inactive)	17.7 µM (inactive)	28.4 µM (inactive)	33 µM (inactive)	17.6 µM (inactive)	5.57 µM (inactive)	19.6 µM (inactive)	29.5 µM (inactive)	49.8 µM (inactive)	32.7 µM (inactive)	43 µM (inactive)
O=C([O-])C(O)C(O)C(=O)O.[K+] (stereo not given) [POTASSIUM HYDROGENTARTRATE]	> 100 µM (inactive)	> 100 µM (inactive)	> 100 µM (inactive)	> 100 µM (inactive)	> 100 µM (inactive)	> 100 µM (inactive)	> 100 µM (inactive)	> 100 µM (inactive)	> 100 µM (inactive)	> 100 µM (inactive)	> 100 µM (inactive)	> 100 µM (inactive)	> 100 µM (inactive)	> 100 µM (inactive)	> 100 µM (inactive)	> 100 µM (inactive)	> 100 µM (inactive)	> 100 µM (inactive)	
